These results are taken from PMC4994063, “Harnessing Fluorine–Sulfur Contacts and Multipolar Interactions for the Design of p53 Mutant Y220C Rescue Drugs” (ACS Chemical Biology, 2016).

Assay [1] deals with T1, p53-Y220C DBD (Homo sapiens, UniProt P04637, M133L/N239Y/N268D/V203A/Y220C).
T1 construct: Stabilized p53-Y220C DBD (residues 94–312) was expressed and purified as previously described; made in house
Further details: method as in Boeckler et al. (24). The settings on record: data taken from the literature; ref Boeckler et al. (24); read-out: ITC KD; cited from earlier work.

Assay [2] deals with T2, p53-Y220C DNA-binding domain (DBD) (Homo sapiens, UniProt P04637, M133L/N239Y/N268D/V203A/Y220C).
T2 construct: Stabilized p53-Y220C DBD (residues 94–312) was expressed and purified as previously described; made in house
Nature of the assay: Differential scanning fluorimetry (DSF), stabilization of p53-Y220C DBD. The conditions noted are these: 8 μM stabilized p53-Y220C DBD, 25 mM KPi pH 7.2, 5% DMSO, triplicate; for DSF ΔTm at 125 μM: compound 125 μM; for ΔTm at 125 µM: pH 7.2, compound 125 μM. On the procedure: We tested […]083 (1) and analogues 2-6 for their stabilization of the p53-Y220C DNA-binding domain (DBD) using differential scanning fluorimetry (DSF; Table 1). The N-2,2,2-trifluoroethyl substituted carbazoles 4 and 6 increased stability of the p53-Y220C DBD by 1.2 K at a compound concentration of 125 μM, showing a clear improvement over their N-ethyl substituted counterparts […]083 (1) and 5 (ΔTm = 0.8 K and ΔTm = 0.6 K, respectively). […] DSF was performed as described.[26] Briefly, melting temperatures (Tm) were determined using 8 μM protein (stabilized p53-Y220C DBD) and 10 × SYPRO orange (Life Technologies) in a 25 mM KPi (pH 7.2), 150 mM NaCl, and 1 mM TCEP assay buffer at a final DMSO concentration of 5% (v/v). ΔTm values were calculated as ΔTm= Tm (protein + compound) - Tm (protein)). All samples were measured in triplicate.
(DSF heats the sample and reads unfolding from a dye or from intrinsic fluorescence.)

For assay [3], the target named is T1, p53-Y220C DBD. The experiment in a line: Isothermal titration calorimetry (ITC). The class given is binding. The settings on record: for Kd: 50 μM protein, 25 mM KPi pH 7.2, 150 mM NaCl, 1 mM TCEP, 5% DMSO; for increase in affinity (ITC KD) compared to the nonfluorinated parent compounds (1 and 5): 4 vs 1, 6 vs 5; for improvement of free energy of binding compared with parent compounds: at 293 K, vs PhiKan083 (1) and 5. The method, then: We tested PhiKan083 (1) and analogues 2–6 for their stabilization of the p53-Y220C DNA-binding domain (DBD) using differential scanning fluorimetry (DSF; Table 1). The N-2,2,2-trifluoroethyl substituted carbazoles 4 and 6 increased stability of the p53-Y220C DBD by 1.2 K at a compound concentration of 125 μM, showing a clear improvement over their N-ethyl substituted counterparts PhiKan083 (1) and 5 (ΔTm = 0.8 K and ΔTm = 0.6 K, respectively).
ITC experiments were conducted as described.[26] Samples for the cell unit contained 50 μM protein in a 25 mM KPi (pH 7.2), 150 mM NaCl, 1 mM TCEP, and 5% (v/v) DMSO assay buffer. The syringe contained 2–5 mM compound in the same assay buffer.
Background: In ITC the heat of successive injections is recorded.

Several values for one entry are separate records, joined by “and”; a condition that tells them apart may be missing. Equal values may be shown once. Read-outs that look alike come from different tables or passages of the source.

Broadly, the Kd is the concentration at which binding is half-saturated. One may read the ΔTm as the shift of the melting midpoint relative to a reference.

Take `CCn1c2ccccc2c2cc(CNC)ccc21` [Compound 1, 1-(9-ethyl-9H-carbazole-3-yl)-N-methylmethanamine]: the Kd at p53-Y220C DBD [1] is 124 µM.
As to `CNCc1ccc2c(c1)c1ccccc1n2CCF` [Compound 2, 1-(9-(2-Fluoroethyl)-9H-carbazol-3-yl)-N-methylmethanamine], in assay [2], the “DSF ΔTm at 125 μM” value came out at 0.4 K and the ΔTm at 125 µM was 0.3 °C. In addition, on p53-Y220C DBD [3], the dissociation constant (Kd) stood at 138 µM.
For `CNCc1ccc2c(c1)c1ccccc1n2CC(F)F` [Compound 3, 1-(9-(2,2-Difluoroethyl)-9H-carbazol-3-yl)-N-methylmethanamine], in that order: 0.3 K, 0.4 °C and 101 µM.
As to `CNCc1ccc2c(c1)c1ccccc1n2CC(F)(F)F` [Compound 4, 1-(9-(2,2,2-Trifluoroethyl)-9H-carbazol-3-yl)-N-methylmethanamine], the shift in melting temperature (ΔTm) at 125 µM in assay [2] stood at 1.2 °C. At p53-Y220C DBD [3], the “ligand efficiency (LE)” value came out at 0.3 kcal mol^–1 atom^–1; the dissociation constant Kd was 28.3 µM and 28 µM; the “increase in affinity (ITC KD) compared to the nonfluorinated parent compounds (1 and 5)” value came out at 5 fold; the “improvement of free energy of binding compared with parent compounds” value was “approximately −0.9 kcal/mol”.
Turning to `CCn1c2ccccc2c2cc(CN(C)C)ccc21` [Compound 5, 1-(9-Ethyl-9H-carbazol-3-yl)-N,N-dimethylmethanamine], the thermal shift (ΔTm) at 125 µM in assay [2] was 0.6 °C. Moreover, at p53-Y220C DBD [3], the dissociation constant (Kd) amounted to 169 µM. The “drop in affinity due to additional methyl group at the amine” value on p53-Y220C DBD [3] (5 vs 1) is listed as 30%.
Regarding `CN(C)Cc1ccc2c(c1)c1ccccc1n2CC(F)(F)F` [Compound 6, 1-(9-(2,2,2-Trifluoroethyl)-9H-carbazol-3-yl)-N,N-dimethylmethanamine], in assay [2], the ΔTm at 125 µM worked out at 1.2 °C. Moreover, at p53-Y220C DBD [3], the “ligand efficiency (LE)” value was found to be 0.3 kcal mol^–1 atom^–1; the equilibrium dissociation constant (Kd) was 37.2 µM and 37 µM; the “increase in affinity (ITC KD) compared to the nonfluorinated parent compounds (1 and 5)” value was determined as 5 fold; the “improvement of free energy of binding compared with parent compounds” value is given as “approximately −0.9 kcal/mol”.
